Assay results as given in PubChem BioAssay (NCI).
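Cultured in 96-well plates, cells were exposed to test compound for 48 hours across five concentrations. TGI marks complete inhibition of growth.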

How the values were obtained:
Test in all cases: inhibition of tumour cell growth, NCI panel, 48 h
NCI-H23 lung = test system: NCI-H23 lung
CCRF-CEM leukemia = test system: CCRF-CEM leukemia
SK-MEL-28 melanoma = test system: SK-MEL-28 melanoma
SK-MEL-5 melanoma = test system: SK-MEL-5 melanoma
OVCAR-8 ovarian = test system: OVCAR-8 ovarian
SW-620 colon = test system: SW-620 colon
MCF7 breast = test system: MCF7 breast
HOP-92 NSCLC = test system: HOP-92 NSCLC
M14 melanoma = test system: M14 melanoma
DU-145 prostate = test system: DU-145 prostate
KM12 colon = test system: KM12 colon
U251 CNS = test system: U251 CNS
MALME-3M melanoma = test system: MALME-3M melanoma
ACHN renal = test system: ACHN renal
SNB-19 CNS = test system: SNB-19 CNS
SF-539 CNS = test system: SF-539 CNS
UACC-257 melanoma = test system: UACC-257 melanoma
HCT-116 colon = test system: HCT-116 colon
PC-3 prostate = test system: PC-3 prostate
SR leukemia = test system: SR leukemia
LOX IMVI melanoma = test system: LOX IMVI melanoma
UACC-62 melanoma = test system: UACC-62 melanoma
MDA-N = test system: MDA-N
NCI/ADR-RES ovarian = test system: NCI/ADR-RES ovarian
HCT-15 colon = test system: HCT-15 colon
A498 renal = test system: A498 renal
MDA-MB-435 = test system: MDA-MB-435
SNB-75 CNS = test system: SNB-75 CNS
COLO 205 colon = test system: COLO 205 colon
786-0 renal = test system: 786-0 renal
SN12C renal = test system: SN12C renal
NCI-H460 lung = test system: NCI-H460 lung
OVCAR-4 ovarian = test system: OVCAR-4 ovarian
CAKI-1 renal = test system: CAKI-1 renal
SK-MEL-2 melanoma = test system: SK-MEL-2 melanoma
K-562 leukemia = test system: K-562 leukemia
HL-60(TB) leukemia = test system: HL-60(TB) leukemia
RPMI-8226 leukemia = test system: RPMI-8226 leukemia
BT-549 breast = test system: BT-549 breast
SK-OV-3 ovarian = test system: SK-OV-3 ovarian
MDA-MB-231 breast = test system: MDA-MB-231 breast
RXF 393 renal = test system: RXF 393 renal
UO-31 renal = test system: UO-31 renal
A549 NSCLC = test system: A549 NSCLC
SF-295 CNS = test system: SF-295 CNS
OVCAR-3 ovarian = test system: OVCAR-3 ovarian
NCI-H226 lung = test system: NCI-H226 lung
EKVX NSCLC = test system: EKVX NSCLC
HCC-2998 colon = test system: HCC-2998 colon
HT29 colon = test system: HT29 colon
MOLT-4 leukemia = test system: MOLT-4 leukemia
HOP-62 NSCLC = test system: HOP-62 NSCLC
NCI-H522 lung = test system: NCI-H522 lung
OVCAR-5 ovarian = test system: OVCAR-5 ovarian
TK-10 renal = test system: TK-10 renal
T-47D breast = test system: T-47D breast
IGROV1 ovarian = test system: IGROV1 ovarian
SF-268 CNS = test system: SF-268 CNS

CC(CO)CCC(O)C(C)(O)C1CCC2(O)C3=CC(=O)C4CC(O)C(O)CC4(C)C3CCC12C (configuration not stated)
TGI (NCI-H23 lung): > 100 µM
TGI (CCRF-CEM leukemia): > 100 µM
TGI (SK-MEL-28 melanoma): > 100 µM
TGI (SK-MEL-5 melanoma): > 100 µM
TGI (OVCAR-8 ovarian): > 100 µM
TGI (SW-620 colon): > 100 µM
TGI (MCF7 breast): > 100 µM
TGI (HOP-92 NSCLC): > 100 µM
TGI (M14 melanoma): > 100 µM
TGI (DU-145 prostate): > 100 µM
TGI (KM12 colon): > 100 µM
TGI (U251 CNS): > 100 µM
TGI (MALME-3M melanoma): > 100 µM
TGI (ACHN renal): > 100 µM
TGI (SNB-19 CNS): > 100 µM
TGI (SF-539 CNS): > 100 µM
TGI (UACC-257 melanoma): > 100 µM
TGI (HCT-116 colon): > 100 µM
TGI (PC-3 prostate): > 100 µM
TGI (SR leukemia): > 100 µM
TGI (LOX IMVI melanoma): > 100 µM
TGI (UACC-62 melanoma): > 100 µM
TGI (MDA-N): > 100 µM
TGI (NCI/ADR-RES ovarian): > 100 µM
TGI (HCT-15 colon): > 100 µM
TGI (A498 renal): > 100 µM
TGI (MDA-MB-435): > 100 µM
TGI (SNB-75 CNS): > 100 µM
TGI (COLO 205 colon): > 100 µM
TGI (786-0 renal): > 100 µM
TGI (SN12C renal): > 100 µM
TGI (NCI-H460 lung): > 100 µM
TGI (OVCAR-4 ovarian): > 100 µM
TGI (CAKI-1 renal): > 100 µM
TGI (SK-MEL-2 melanoma): > 100 µM
TGI (K-562 leukemia): > 100 µM
TGI (HL-60(TB) leukemia): > 100 µM
TGI (RPMI-8226 leukemia): > 100 µM
TGI (BT-549 breast): > 100 µM
TGI (SK-OV-3 ovarian): > 100 µM
TGI (MDA-MB-231 breast): > 100 µM
TGI (RXF 393 renal): > 100 µM
TGI (UO-31 renal): > 100 µM
TGI (A549 NSCLC): > 100 µM
TGI (SF-295 CNS): > 100 µM
TGI (OVCAR-3 ovarian): > 100 µM
TGI (NCI-H226 lung): > 100 µM
TGI (EKVX NSCLC): > 100 µM
TGI (HCC-2998 colon): > 100 µM
TGI (HT29 colon): > 100 µM
TGI (MOLT-4 leukemia): > 100 µM
TGI (HOP-62 NSCLC): > 100 µM
TGI (NCI-H522 lung): > 100 µM
TGI (OVCAR-5 ovarian): > 100 µM

CC(=O)OCc1cc(=O)n2c([nH]c3ccccc32)c1C#N
TGI (NCI-H23 lung): > 100 µM
TGI (CCRF-CEM leukemia): > 100 µM
TGI (SK-MEL-28 melanoma): > 100 µM
TGI (SK-MEL-5 melanoma): > 100 µM
TGI (OVCAR-8 ovarian): > 100 µM
TGI (SW-620 colon): > 100 µM
TGI (MCF7 breast): > 100 µM
TGI (HOP-92 NSCLC): > 100 µM
TGI (M14 melanoma): > 100 µM
TGI (DU-145 prostate): > 100 µM
TGI (U251 CNS): > 100 µM
TGI (MALME-3M melanoma): > 100 µM
TGI (ACHN renal): > 100 µM
TGI (SNB-19 CNS): > 100 µM
TGI (SF-539 CNS): > 100 µM
TGI (UACC-257 melanoma): > 100 µM
TGI (HCT-116 colon): > 100 µM
TGI (PC-3 prostate): > 100 µM
TGI (LOX IMVI melanoma): > 100 µM
TGI (UACC-62 melanoma): > 100 µM
TGI (MDA-N): > 100 µM
TGI (NCI/ADR-RES ovarian): > 100 µM
TGI (TK-10 renal): > 100 µM
TGI (HCT-15 colon): > 100 µM
TGI (A498 renal): > 100 µM
TGI (COLO 205 colon): > 100 µM
TGI (786-0 renal): > 100 µM
TGI (SN12C renal): > 100 µM
TGI (NCI-H460 lung): 64.8 µM
TGI (OVCAR-4 ovarian): 60.9 µM
TGI (CAKI-1 renal): > 100 µM
TGI (SK-MEL-2 melanoma): > 100 µM
TGI (K-562 leukemia): > 100 µM
TGI (HL-60(TB) leukemia): > 100 µM
TGI (BT-549 breast): > 100 µM
TGI (SK-OV-3 ovarian): > 100 µM
TGI (MDA-MB-231 breast): > 100 µM
TGI (RXF 393 renal): > 100 µM
TGI (UO-31 renal): > 100 µM
TGI (A549 NSCLC): > 100 µM
TGI (SF-295 CNS): > 100 µM
TGI (OVCAR-3 ovarian): > 100 µM
TGI (NCI-H226 lung): > 100 µM
TGI (EKVX NSCLC): > 100 µM
TGI (HCC-2998 colon): > 100 µM
TGI (HT29 colon): > 100 µM
TGI (MOLT-4 leukemia): > 100 µM
TGI (T-47D breast): > 100 µM
TGI (IGROV1 ovarian): > 100 µM
TGI (OVCAR-5 ovarian): > 100 µM

CCCCS/C(=C(/C#N)C(N)=O)c1cc2c([nH]1)CCCC2
TGI (NCI-H23 lung): 36.7 µM
TGI (CCRF-CEM leukemia): 48.9 µM
TGI (SK-MEL-28 melanoma): 28.2 µM
TGI (SK-MEL-5 melanoma): 26.7 µM
TGI (OVCAR-8 ovarian): 36.5 µM
TGI (SW-620 colon): 24.6 µM
TGI (MCF7 breast): 50.4 µM
TGI (HOP-92 NSCLC): 38.7 µM
TGI (DU-145 prostate): 25.4 µM
TGI (KM12 colon): 23.5 µM
TGI (U251 CNS): 31.2 µM
TGI (SF-268 CNS): 26.7 µM
TGI (MALME-3M melanoma): 23.8 µM
TGI (ACHN renal): 39.7 µM
TGI (SNB-19 CNS): 34.4 µM
TGI (SF-539 CNS): 30 µM
TGI (UACC-257 melanoma): 32.4 µM
TGI (HCT-116 colon): 23 µM
TGI (PC-3 prostate): 46.5 µM
TGI (LOX IMVI melanoma): 21.1 µM
TGI (UACC-62 melanoma): 22.8 µM
TGI (MDA-N): 18.3 µM
TGI (NCI/ADR-RES ovarian): 28.6 µM
TGI (TK-10 renal): 29 µM
TGI (HCT-15 colon): 21.4 µM
TGI (A498 renal): 31.4 µM
TGI (MDA-MB-435): 11.9 µM
TGI (SNB-75 CNS): 29.1 µM
TGI (COLO 205 colon): 27.9 µM
TGI (786-0 renal): 24 µM
TGI (SN12C renal): 43.1 µM
TGI (NCI-H460 lung): 48.3 µM
TGI (OVCAR-4 ovarian): 36.1 µM
TGI (CAKI-1 renal): 29.5 µM
TGI (SK-MEL-2 melanoma): 34.7 µM
TGI (K-562 leukemia): > 100 µM
TGI (HL-60(TB) leukemia): 11.6 µM
TGI (RPMI-8226 leukemia): 29.6 µM
TGI (BT-549 breast): 27.8 µM
TGI (SK-OV-3 ovarian): 93.8 µM
TGI (MDA-MB-231 breast): 30.3 µM
TGI (RXF 393 renal): 38.6 µM
TGI (UO-31 renal): 25.8 µM
TGI (A549 NSCLC): > 100 µM
TGI (SF-295 CNS): 28.5 µM
TGI (OVCAR-3 ovarian): 36.5 µM
TGI (NCI-H226 lung): 34.7 µM
TGI (EKVX NSCLC): 24.4 µM
TGI (HCC-2998 colon): 26.7 µM
TGI (HT29 colon): 15 µM
TGI (MOLT-4 leukemia): 38.6 µM
TGI (HOP-62 NSCLC): 72 µM
TGI (OVCAR-5 ovarian): > 100 µM
